{"source": "patent US20090275667A1", "about": "“USE OF ALLICIN AS PRESERVATIVE, AS DISINFECTANT, AS ANTIMICROBIAL OR AS BIOCIDAL AGENT” (Stone Island Holdings Ltd, priority 2003, published 2009)", "assay_type_in_all_cases": "cell-based", "key": {"[1]": {"tested_on": "Paenibacillus larvae subsp. larvae", "assay": "MIC by broth microdilution, bee pathogens", "conditions": "range 1000 ppm to 0.25 ppm", "excerpt": "(§1) We tested allicia (Allisure™ Liquid) activity against several species of entomopathogenic bacteria (Paenibacillus larvae subsp. larvae, Paenibacillus larvae subsp. pulvifaciens) and fungi (Ascosphaera apis and Ascosphaera aggregata) using broth microdilution method to determine minimum inhibitory concentration (MIC) and the agar diffusion test (Kirby-Bauer) to determine zone of inhibition. Bacterial spores were isolated from the diseased honey bee larval samples. A small aliquot of heat-treated bacterial spores was suspended in 100 μl of phosphate buffered saline-pH 7.2 (PBS) and plated on semi-selective J. Agar medium, containing Nalidixic and Pipemidic acid (Alippi, A M (1995) Detection of Bacillus larvae spores in Argentinian honeys by using a semi-selective medium. Microbiologia 1995 11(3): 343-50; and Govan, V A; Allsopp, M H; Davison, S A (1999) PCR Detection Method for Rapid Identification of Paenibacillus larvae. Applied and Environmental Microbiology 65(5): 2243-2245.\n(§2) The plates were incubated at 33° C. in air containing 6% CO2 and 95% RH. The initial species identification was based on morphological, biological and cultural characteristics. The bacterial culture was tested for a catalase reaction (Leboffe, M. J and Pierce, B e (1999) A photographic atlas for the microbiology laboratory. Morton Publishing Company. 254 pp). The bacterial colonies were characterized by shape, margins and color. Gram-positive stained smears (Gram-stain Reagents Kit, EMD Chemicals Inc., NJ) were examined for morphological identification of vegetative cells and spores.\n(§3) DNA based PCR identification was performed to corroborate identification of the bacterial species. Bacterial cells from culture plates were added directly to 30 μl of PCR reaction. The PCR primers used in the reaction were based on the 16S RNA sequence to selectively amplify a fragment of 973 by unique to P. larvae (Govan et al., 1999). The PCR products were visualized by 0.8% agarose gel electrophoresis in TAE buffer and ethidium bromide staining. The reference strains of bacteria were used as a control in PCR reactions and were provided by the National Center for Agricultural Research, Peoria, Ill. P. l. larvae (NRRL B-3560, B-2605) and P. l. palvifaciens (NRRL B-3688, B-3685, B-3689, NRS-1687, P. alvei B383).\n(§4) Positive controls contained the antibiotic Tylosin (Tylan® 50, Elanco Animal Health Inc., IN) and negative controls contained no antibiotics. […] The optical densities of cultures (OD 600) were recorded 24 h and 48 h post inoculation, depending on the growth rate of the microbial species. […] Minimum bactericidal concentration values (NBC) were determined for allicin by plating out 100 μl of bacterial cultures derived from the MIC assay. […]"}, "[2]": {"tested_on": "Paenibacillus larvae subsp. pulvifaciens", "assay": "MIC by broth microdilution, bee pathogens", "conditions": "range 1000 ppm to 0.25 ppm", "excerpt": "as §1, §2, §3, §4"}, "Ascosphaera aggregata": {"tested_on": "Ascosphaera aggregata", "assay": "Disk diffusion test (Kirby-Bauer), zone of inhibition", "conditions": "6 mm paper disc containing 5 μg of tylosin", "method": "(§5) Allicin (Allisure™ Liquid) was tested against bacterial and fungal pathogens using a standard disk diffusion method (per Norrell & Messley). The aliquots of bacterial or fungal spores (100 μl of approximately 10^8-10^9 spores/ml) were plated on Mueller-Hinton agar medium, 4.0 mm depth. The 6 mm paper discs containing 250 μg of allicin or 5 μg of tylosin (positive control) were placed in the center of each plate. Plates were incubated at 33° C. and 6% CO2 and a zone of inhibition was measured 24 h, 48 h or 76 h post inoculation depending on the microbial species. All experiments were replicated at least three times."}, "Ascosphaera apis": {"tested_on": "Ascosphaera apis", "assay": "Disk diffusion test (Kirby-Bauer), zone of inhibition", "conditions": "6 mm paper disc containing 5 μg of tylosin", "method": "as §5"}, "[3]": {"tested_on": "Paenibacillus larvae subsp. larvae", "assay": "Disk diffusion test (Kirby-Bauer), zone of inhibition", "conditions": "6 mm paper disc containing 5 μg of tylosin", "method": "as §5"}, "[4]": {"tested_on": "Paenibacillus larvae subsp. pulvifaciens", "assay": "Disk diffusion test (Kirby-Bauer), zone of inhibition", "conditions": "6 mm paper disc containing 5 μg of tylosin", "method": "as §5"}}}
{"smiles": "CC[C@H]1OC(=O)C[C@@H](O)[C@H](C)[C@@H](O[C@@H]2O[C@H](C)[C@@H](O[C@H]3C[C@@](C)(O)[C@@H](O)[C@H](C)O3)[C@H](N(C)C)[C@H]2O)[C@@H](CC=O)C[C@@H](C)C(=O)/C=C/C(C)=C/[C@@H]1CO[C@@H]1O[C@H](C)[C@@H](O)[C@@H](OC)[C@H]1OC", "note": "[tylosin, reference compound]", "values": [{"measurement": "MIC", "setting": "[1]", "value": "< 0.25", "unit": "µg/mL"}, {"measurement": "MIC", "setting": "[2]", "value": "< 0.25", "unit": "µg/mL"}, {"measurement": "zone of inhibition", "setting": "Ascosphaera aggregata", "value": 0.0, "unit": "mm"}, {"measurement": "zone of inhibition", "setting": "Ascosphaera apis", "value": 0.0, "unit": "mm"}, {"measurement": "growth inhibition in agar diffusion test", "setting": "[3]", "value": "completely inhibited"}, {"measurement": "zone of inhibition", "setting": "[4]", "value": "14-16 mm"}]}
